In patent publication US11512053B2, “Arginine methyltransferase inhibitors and uses thereof” (priority 2013, dated 2022):

Target: T1, full-length human PRMT3 isoform 1 (GST-tagged) (Homo sapiens, UniProt O60678)
T1 construct: GST-tagged PRMT3; made in house; host or cells: E. coli BL21(DE3) Gold
Test: PRMT3 Biochemical Assay (3H-SAM Flashplate, peptide substrate)
Conditions: single experiment or average of multiple experiments
Source text: General Materials. S-adenosylmethionine (SAM), S-adenosylhomocysteine (SAH), bicine, Tween20, dimethylsulfoxide (DMSO), bovine skin gelatin (BSG),), isopropyl-β-D-thiogalactopyranoside (IPTG), and Tris(2-carboxyethyl)phosphine hydrochloride solution (TCEP) were purchased from Sigma-Aldrich at the highest level of purity possible. ^3H-SAM was purchase from American Radiolabeled Chemicals with a specific activity of 80 Ci/mmol. 384-well streptavidin Flashplates were purchased from PerkinElmer.
Substrates. Peptide containing the classic RMT substrate motif was synthesized with an N-terminal linker-affinity tag motif and a C-terminal amide cap by 21st Century Biochemicals. The peptide was purified by high-performance liquid chromatography (HPLC) to greater than 95% purity and confirmed by liquid chromatography mass spectrometry (LC-MS). The sequence was Biot-Ahx-[…]-amide (SEQ ID NO.:11).
Molecular Biology: Full-length human PRMT3 (NM_005788.3) isoform 1 transcript clone was amplified from an HEK 293 cDNA library and subcloned into pGEX-KG (GE Life Sciences). The resulting construct encodes an N-terminal GST tag and a thrombin cleavage sequence ([…] […] […] […] S) (SEQ ID NO.:12) fused directly to Cys 2 of PRMT3.
Protein Expression. E. coli (BL21(DE3) Gold, Stratagene) made competent by the CaCl2) method were transformed with the PRMT3 construct and ampicillin selection. Protein over-expression was accomplished by growing the PRMT3 expressing E. coli clone and inducing expression with 0.3 mM IPTG at 16° C. The culture was grown for 12 hours, harvested by centrifugation, and stored at −80° C. for purification.
Protein Purification. […] GST-tagged PRMT3 was eluted with 50 mM Tris, 2 mM glutathione, pH 7.1 and 50 mM Tris, 20 mM glutathione, pH 7.1. Pooled fractions were dialysed in 20 mM Tris, 50 mM NaCl, 5% glycerol, 1 mM EDTA, 1 mM DTT, pH7.5 (Buffer B) and applied to a Q Sepharose Fast Flow column. GST-tagged PRMT3 was eluted by 500 mM NaCl in buffer B. Pooled fractions were dialyzed in 25 mM phosphate buffer, 100 mM NaCl, 5% glycerol, 2 mM DTT, pH 6.8 (Buffer C) and loaded on to a ceramic hydroxyapatite column. GST-tagged PRMT3 eluted with 25-400 mM phosphate in buffer C. Protein was concentrated and buffer was exchanged to 20 mM Tris, 150 mM NaCl, 5% glycerol, 5 mM β-mercaptoethanol, pH7.8 by ultrafiltration. The purity of recovered protein was 70%.
General Procedure for PRMT3 Enzyme Assays on Peptide Substrates. The assays were all performed in a buffer consisting of 20 mM Bicine (pH=7.6), 1 mM TCEP, 0.005% BSG, and 0.002% Tween 20, prepared on the day of use. Compounds in 100% DMSO (1 ul) were spotted into a polypropylene 384-well V-bottom plates (Greiner) using a Platemate Plus outfitted with a 384-channel head (Thermo Scientific). DMSO (1 ul) was added to Columns 11, 12, 23, 24, rows A-H for the maximum signal control and 1 ul of SAH, a known product and inhibitor of PRMT3, was added to columns 11, 12, 23, 24, rows I-P for the minimum signal control. A cocktail (40 ul) containing the PRMT3 enzyme was added by Multidrop Combi (Thermo-Fisher). The compounds were allowed to incubate with PRMT3 for 30 min at room temperature, then a cocktail (10 ul) containing SAM and peptide was added to initiate the reaction (final volume=51 ul). The final concentrations of the components were as follows: PRMT3 was 0.5 nM, ^3H-SAM was 100 nM, non-radiolabeled SAM was 1.8 uM, peptide was 330 nM, SAH in the minimum signal control wells was 1 mM, and the DMSO concentration was 2%. The assays were stopped by the addition of potassium chloride (10 ul) to a final concentration of 100 mM. 50 ul of the reaction in the 384-well polypropylene plate was then transferred to a 384-well Flashplate and the biotinylated peptides were allowed to bind to the streptavidin surface for at least 1 hour before being washed once with 0.1% Tween20 in a Biotek ELx405 plate washer. […]

T1 sequence (O60678 with tags, fused parts or gaps): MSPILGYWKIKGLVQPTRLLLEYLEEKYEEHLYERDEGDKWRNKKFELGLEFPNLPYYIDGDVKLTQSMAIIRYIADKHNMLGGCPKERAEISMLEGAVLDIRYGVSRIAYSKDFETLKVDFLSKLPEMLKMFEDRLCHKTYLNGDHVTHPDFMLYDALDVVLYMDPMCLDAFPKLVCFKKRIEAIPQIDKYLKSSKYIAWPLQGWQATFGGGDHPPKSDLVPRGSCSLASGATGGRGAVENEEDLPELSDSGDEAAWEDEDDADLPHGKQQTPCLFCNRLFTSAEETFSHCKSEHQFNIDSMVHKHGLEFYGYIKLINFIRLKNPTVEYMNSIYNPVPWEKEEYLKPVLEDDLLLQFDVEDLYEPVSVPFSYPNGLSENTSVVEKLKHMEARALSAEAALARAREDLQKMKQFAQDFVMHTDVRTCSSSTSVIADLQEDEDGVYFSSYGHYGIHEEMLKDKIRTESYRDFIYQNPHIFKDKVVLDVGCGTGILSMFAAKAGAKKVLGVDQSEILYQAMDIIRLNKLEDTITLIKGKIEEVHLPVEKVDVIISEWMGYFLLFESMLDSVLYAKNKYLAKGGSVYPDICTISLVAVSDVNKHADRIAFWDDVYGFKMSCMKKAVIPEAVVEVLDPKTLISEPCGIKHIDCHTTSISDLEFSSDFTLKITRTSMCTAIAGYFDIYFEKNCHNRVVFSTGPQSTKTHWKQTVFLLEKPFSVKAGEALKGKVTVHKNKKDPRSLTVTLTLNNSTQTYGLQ

IC50: 9.4 µM
SMILES: CNCCN(C)Cc1c[nH]nc1C#Cc1ccccc1 [Compound 3]
